The values below are quoted from earlier work in patent US6352152B1, “Method and package for storing a pressurized container containing a drug” (Smithkline Beecham Corporation, priority 1998, dated 2002).

For the data set the following is noted: Pischtiak 1999, Solvay chemical data sheet.
As to `FCC(F)(F)F` [HFC 134a, 1,1,1,2-tetrafluoroethane], the “maximum water solubility in the propellant” value (from here on “maximum water solubility”) is “about 2200 ppm”.

Take `FC(F)(Cl)Cl` [CFC 12]: the “maximum water solubility” value was “about 130 ppm”.

For the molecule `FC(F)(Cl)C(F)(F)Cl` [CFC 114], the “maximum water solubility” value was “about 130 ppm”.
